A short description of data set [1]: Toxicity in sheep erythrocytes assessed as induction of hemolysis. Conditions: read-out: HD50 (the source's name). The data set is classed as cell-based, Ovis aries, Erythrocyte.
The nature of data set [2]: Cell membrane permeabilization in human WS1 cells assessed as drug level causing decrease in calcein fluorescence. The data set is classed as ADME, cell-based.
The test system of data set [3] is A549. The experiment in a line: Cell membrane permeabilization in human A549 cells assessed as drug level causing decrease in calcein fluorescence. The class given is ADME, cell-based.
Data set [4] has as its system DLD-1. The experiment in a line: Cell membrane permeabilization in human DLD1 cells assessed as drug level causing decrease in calcein fluorescence. The data set is classed as ADME, cell-based.
The subject of data set [5] is DLD-1. Briefly: Cytotoxicity against human DLD1 cells after 48 hrs by resazurin reduction test. The class given is functional, cell-based. Conditions: DLD-1, 48 h. Background: Alamar Blue is a resazurin reagent that responds to reducing activity.
Data set [6] can be described thus: Cytotoxicity against human WS1 cells after 48 hrs by resazurin reduction test. The data set is classed as cell-based. Conditions: WS1, 48 h.
Data set [7] concerns A549. Briefly: Cytotoxicity against human A549 cells after 48 hrs by resazurin reduction test. The data set is classed as functional, cell-based. Conditions: A549, 48 h.

This is an account of results in ChEMBL document CHEMBL1152749, “Haemolytic activity, cytotoxicity and membrane cell permeabilization of semi-synthetic and natural lupane- and oleanane-type saponins” (Bioorg Med Chem, 2009).

What is called IC50 is the midpoint of a concentration-inhibition curve.

Take `C=C(C)[C@@H]1CC[C@]2(CO)CC[C@]3(C)[C@H](CC[C@@H]4[C@@]5(C)CC[C@H](O)C(C)(C)[C@@H]5CC[C@]43C)[C@@H]12` [BETULIN]: the HC50 in data set [1] is greater than 100 µM. The IC50 in data set [2], in data set [3] and in data set [4] was greater than 200 µM throughout.
With `C=C(C)[C@@H]1CC[C@]2(C(=O)O)CC[C@]3(C)[C@H](CC[C@@H]4[C@@]5(C)CC[C@H](O[C@@H]6OC[C@H](O[C@@H]7O[C@H](CO)[C@@H](O)[C@H](O)[C@H]7O)[C@H](O)[C@H]6O[C@@H]6O[C@@H](C)[C@H](O)[C@@H](O)[C@H]6O)C(C)(C)[C@@H]5CC[C@]43C)[C@@H]12`, the HC50 in data set [1] came to 94 µM. The concentration for half-maximal inhibition (IC50) in data set [2] is greater than 200 µM; in data set [5], greater than 50 µM; in data set [3], greater than 200 µM; in data set [6] it was greater than 50 µM; in data set [4], greater than 200 µM; in data set [7], greater than 50 µM.
For `CC1(C)CC[C@]2(C(=O)O)CC[C@]3(C)C(=CC[C@@H]4[C@@]5(C)CC[C@H](O)[C@@](C)(CO)[C@@H]5CC[C@]43C)[C@@H]2C1` [HEDERAGENIN], the HC50 in data set [1] was greater than 100 µM. Moreover, the IC50 in data set [2] was greater than 200 µM; in data set [5] it was greater than 100 µM; in data set [3] it was greater than 200 µM; in data set [6], 77 µM; in data set [4] it was greater than 200 µM; in data set [7], 39 µM.
For `C=C(C)[C@@H]1CC[C@]2(C(=O)O)CC[C@]3(C)[C@H](CC[C@@H]4[C@@]5(C)CC[C@H](O[C@@H]6OC[C@@H](O)[C@H](O)[C@H]6O)C(C)(C)[C@@H]5CC[C@]43C)[C@@H]12`, the HC50 in data set [1] was greater than 100 µM. Further, the IC50 in data set [2], in data set [3] and in data set [4] was greater than 200 µM each time.
On to `C=C(C)[C@@H]1CC[C@]2(C(=O)O[C@@H]3O[C@H](CO)[C@@H](O)[C@H](O)[C@H]3O)CC[C@]3(C)[C@H](CC[C@@H]4[C@@]5(C)CC[C@H](O[C@@H]6OC[C@H](O)[C@H](O)[C@H]6O)C(C)(C)[C@@H]5CC[C@]43C)[C@@H]12`, for which the HC50 in data set [1] was greater than 100 µM. Also, the IC50 in data set [2], in data set [3] and in data set [4] was greater than 200 µM in each case.
Take `C=C(C)[C@@H]1CC[C@]2(CO[C@@H]3O[C@H](CO)[C@@H](O)[C@H](O)[C@H]3O)CC[C@]3(C)[C@H](CC[C@@H]4[C@@]5(C)CC[C@H](O[C@@H]6O[C@H](CO)[C@@H](O)[C@H](O)[C@H]6O)C(C)(C)[C@@H]5CC[C@]43C)[C@@H]12`: in data set [1], the HC50 is greater than 100 µM. Moreover, the 50% inhibitory concentration (IC50) in data set [2], in data set [3] and in data set [4] was greater than 200 µM each time.
For the compound `C=C(C)[C@@H]1CC[C@]2(CO)CC[C@]3(C)[C@H](CC[C@@H]4[C@@]5(C)CC[C@H](O[C@H]6O[C@H](CO)[C@@H](O)[C@H](O)[C@@H]6O)C(C)(C)[C@@H]5CC[C@]43C)[C@@H]12`, the HC50 in data set [1] was greater than 100 µM. The IC50 in data set [2], in data set [3] and in data set [4] was greater than 200 µM each time.
Regarding `C=C(C)[C@@H]1CC[C@]2(C(=O)O[C@@H]3O[C@@H](C)[C@H](O)[C@@H](O)[C@H]3O)CC[C@]3(C)[C@H](CC[C@@H]4[C@@]5(C)CC[C@H](O[C@@H]6O[C@@H](C)[C@H](O)[C@@H](O)[C@H]6O)C(C)(C)[C@@H]5CC[C@]43C)[C@@H]12`, in data set [1], the HC50 was determined as 85 µM. The 50% inhibitory concentration (IC50) in data set [2], in data set [3] and in data set [4] was greater than 200 µM throughout.
As to `C=C(C)[C@@H]1CC[C@]2(C(=O)O[C@@H]3O[C@H](CO)[C@@H](O)[C@H](O)[C@H]3O)CC[C@]3(C)[C@H](CC[C@@H]4[C@@]5(C)CC[C@H](O[C@@H]6O[C@H](CO)[C@@H](O)[C@H](O)[C@H]6O)C(C)(C)[C@@H]5CC[C@]43C)[C@@H]12`, the HC50 in data set [1] was greater than 100 µM. Also, the IC50 in data set [2], in data set [3] and in data set [4] was greater than 200 µM throughout.
As to `C=C(C)[C@@H]1CC[C@]2(CO[C@@H]3O[C@H](CO)[C@@H](O)[C@H](O)[C@H]3O)CC[C@]3(C)[C@H](CC[C@@H]4[C@@]5(C)CC[C@H](O[C@@H]6O[C@@H](C)[C@H](O)[C@@H](O)[C@H]6O)C(C)(C)[C@@H]5CC[C@]43C)[C@@H]12`, in data set [1], the HC50 is greater than 100 µM. Besides, the IC50 in data set [2], in data set [3] and in data set [4] was greater than 200 µM each time.
`C=C(C)[C@@H]1CC[C@]2(C(=O)O[C@@H]3O[C@H](CO)[C@@H](O)[C@H](O)[C@H]3O)CC[C@]3(C)[C@H](CC[C@@H]4[C@@]5(C)CC[C@H](O)C(C)(C)[C@@H]5CC[C@]43C)[C@@H]12`: the HC50 in data set [1] was greater than 100 µM. Moreover, the IC50 in data set [2], in data set [3] and in data set [4] was greater than 200 µM throughout.
On to `C=C(C)[C@@H]1CC[C@]2(CO[C@@H]3O[C@H](CO)[C@@H](O)[C@H](O)[C@H]3O)CC[C@]3(C)[C@H](CC[C@@H]4[C@@]5(C)CC[C@H](O[C@@H]6OC[C@H](O)[C@H](O)[C@H]6O)C(C)(C)[C@@H]5CC[C@]43C)[C@@H]12`, for which the HC50 in data set [1] is greater than 100 µM. In addition, the half-maximal inhibitory concentration (IC50) in data set [2], in data set [3] and in data set [4] was greater than 200 µM in each case.
For `C=C(C)[C@@H]1CC[C@]2(C(=O)O)CC[C@]3(C)[C@H](CC[C@@H]4[C@@]5(C)CC[C@H](O)C(C)(C)[C@@H]5CC[C@]43C)[C@@H]12` [BETULINIC ACID], in data set [1], the HC50 was greater than 100 µM. In addition, the IC50 in data set [2], in data set [3] and in data set [4] was greater than 200 µM each time.
For `C=C(C)[C@@H]1CC[C@]2(CO[C@@H]3O[C@@H](C)[C@H](O)[C@@H](O)[C@H]3O)CC[C@]3(C)[C@H](CC[C@@H]4[C@@]5(C)CC[C@H](O[C@@H]6O[C@@H](C)[C@H](O)[C@@H](O)[C@H]6O)C(C)(C)[C@@H]5CC[C@]43C)[C@@H]12`, the HC50 in data set [1] is greater than 100 µM. The IC50 in data set [2], in data set [3] and in data set [4] was greater than 200 µM throughout.
Consider `C=C(C)[C@@H]1CC[C@]2(C(=O)O)CC[C@]3(C)[C@H](CC[C@@H]4[C@@]5(C)CC[C@H](O[C@H]6O[C@H](CO)[C@@H](O)[C@H](O)[C@@H]6O)C(C)(C)[C@@H]5CC[C@]43C)[C@@H]12`, for which the HC50 in data set [1] was greater than 100 µM. For the same compound, the IC50 in data set [2], in data set [3] and in data set [4] was greater than 200 µM each time.
`C=C(C)[C@@H]1CC[C@]2(C(=O)O[C@@H]3O[C@H](CO)[C@@H](O)[C@H](O)[C@H]3O)CC[C@]3(C)[C@H](CC[C@@H]4[C@@]5(C)CC[C@H](O[C@@H]6O[C@@H](C)[C@H](O)[C@@H](O)[C@H]6O)C(C)(C)[C@@H]5CC[C@]43C)[C@@H]12`: the HC50 in data set [1] was greater than 100 µM. Further, the IC50 in data set [2], in data set [3] and in data set [4] was greater than 200 µM in each case.
